The record followed here is EP4763838A1, “COMPOUND AND USE THEREOF” (Ocean University of China, priority 2023, dated 2025).

“And” between values parts separate entries of the source, which are not always exact repeats. Identical values can stand only once. Counter-ions that a name gives are not always drawn. Like-named read-outs stand apart in the source and are kept apart here.

One experiment deals with T1, E3 ubiquitin ligase CRBN (Homo sapiens, UniProt Q96SW2).
T1 construct: purchased PE (PerkinElmer) 64BDCRBNPEG
Put plainly: Binding activity to E3 ubiquitin ligase CRBN (HTRF competitive binding with XL665-labeled thalidomide, Cereblon binding kit). Particulars: competition with XL665-labeled thalidomide for GST-labelled CRBN protein, 3 h at room temperature. The protocol: The binding activity of the compound disclosed in the present patent to the E3 ubiquitin ligase CRBN was determined by competitive binding of the disclosed compound with XL665-labeled thalidomide to the CRBN protein, thereby preventing the occurrence of fluorescence resonance energy transfer (FRET). Accordingly, the binding affinity of the compound to the CRBN protein was determined.
CRBN binding activity test kit (CEREBLON BINDING KITS (PE, 64BDCRBNPEG)).
The assay was based on a homogeneous time-resolved fluorescence (HTRF) technology. When a donor and an acceptor were in close proximity, the donor transferred energy to the acceptor so that the acceptor was excited to emit an emission light 665 nm.
The donor used in the kit of the present disclosure was a europium-labeled GST antibody (GST Eu Cryptate Antibody), and the acceptor was thalidomide labeled with XL665 (Thalidomide-Red reagent). The donor bound to the CRBN protein comprising a GST label. The compound disclosed in the present patent competitively bound to the CRBN protein with thalidomide. The binding activity of the compound was determined according to the fluorescence value emitted by the acceptor at 665 nm. The stronger binding force of the compound indicated the weaker signal.
The donor and the acceptor were diluted 50-fold respectively by using a kit buffer (PROTAC binding buffer 1). The CRBN protein was diluted 45-fold. The 8 mM solution of the compound disclosed in the present patent was diluted 10-fold with 1X diluent from the kit, followed by 5-fold serial dilutions for a total of 7 consecutive dilutions.
5 µl of compound, 5 µl of diluted CRBN protein and 10 µl of donor-acceptor isovolumetric mixture were sequentially added to each well of a white 384-well plate (PE, Part number:6008280). The above system was incubated for 3 h at room temperature.
A ratio of acceptor to donor emission signals for each individual well was calculated. Ratio = signal value at 665 nm/signal value at 620 nm * 10^4 Coefficient of variation (CV) = standard deviation (SD)/average Ratio × 100 [formula]
The IC50 value was calculated based on the compound concentration, Ratio and the coefficient of variation by using GraphPad Prism. Table 10 Binding activity of compounds 1-18 to E3 ubiquitin ligase CRBN
In general terms: In TR-FRET formats the signal depends on donor and acceptor labels being close together.

Another experiment deals with T2, BRD protein (Homo sapiens, UniProt O60885).
T2 construct: endogenous in cells; host or cells: MV-4-11
The experiment is described as follows: Reduction of bromodomain protein (BRD) expression levels in MV-4-11 cells (Western blot, DC50 and Dmax). It counts as cell-based. To be noted: BRD4 Western blot, GAPDH internal reference; for DC50: 24 hours of treatment, 0.1, 1, 10 and 20 µM; for Dmax: MV4-11, 24 hours of treatment, 0.1, 1, 10 and 20 µM. The protocol: The human […] MV-4-11 cells selected in this experiment were cultured in Iscove's Modified Dulbecco's Medium (IMDM) culture medium containing 10% fetal bovine serum (Gibco, USA) in an incubator under the conditions of at 37°C, 5% CO2 and 95% humidity. When the growth density reached 80%, a culture medium containing the compound was selected, and the cells were inoculated into a 6-well plate with a cell density of 1×10^6/ml, so that the final concentrations of the compound were 0.1, 1, 10 and 20 µM. After 24 hours of treatment, the cells were collected, washed twice with PBS and lysed with an RIPA lysis buffer containing a protease inhibitor and a phosphatase inhibitor. The lysed mixed solution was centrifuged to obtain a total protein extract. The concentration of the protein in the extract was detected by using a BCA method.
Protein electrophoresis was performed via SDS-PAGE, followed by constant-current electrotransfer at 200 mA for 150 min to transfer proteins onto a polyvinylidene fluoride (PVDF) membrane. The PVDF membrane was placed in 5% skim milk and blocked for 1 h at room temperature. BRD4 (#13440, CST) (1:1000) and C-MYC (ab32072, 1:1000) were added for incubation overnight at 4°C. The membrane was washed with Tris buffered saline Tween (TBST) for 3 times, with 10 min each time. The mixture of the membrane and a secondary antibody were incubated for 60 min at room temperature. The membrane was washed with TBST for 3 times, with 10 min each time. The ECL light-emitting liquid was dropwise added for exposure. Each sample was simultaneously detected using GAPDH protein as an internal reference. The protein profile was analyzed for grayscale values using analysis software ImageJ. The gray scale correction value of each sample was calculated by using the formula was used below: gray scale correction value = (target protein gray scale value/corresponding internal reference gray scale value) × 10^3Then, the calculated gray scale correction value was compared with a control gray scale correction value to calculate a degradation rate. Then, nonlinear curve fitting was performed on a logarithmic concentration-inhibition rate using Prism to obtain the DC50 and Dmax values of the compound.
Table 13 summarizes the evaluation of the reduction effects of protein degraders PRTB-01 to 16 on BRD protein expression levels. DC50 represents the concentration of the protein degrader when it induces 50% of the BRD protein to be degraded, with the level classified as A (DC50<1 µM), B (DC50 1 to 10 µM), or C (DC50>10 µM). Dmax represents the proportion of the maximum degree of […] protein degradation induced by the protein degrader to the total amount of BRD protein, with the level graded as A (Dmax>85%), B (Dmax85~50%), or C ([…]<50%) Table 13 Evaluation of protein degraders PRTB-01 to 16 in reducing BRD protein expression levels
On the technique in general: A western blot detects proteins with antibodies after separation by electrophoresis.

Turning to `O=C1CCC(c2ccc(N3CCC[C@@H]3CO)nn2)C(=O)N1` (stereo partly drawn) [Compound 5, 3-(6-((R)-2-(hydroxymethyl)pyrrolidin-1-yl)pyridazin-3-yl)piperidine-2,6-dione], the IC50 (commonly the concentration that inhibits the measured activity by half) at E3 ubiquitin ligase CRBN worked out at 50 µM. Regarding `O=C1CCC(c2ccc(N3CCC[C@H]3CO)nn2)C(=O)N1` (stereo partly drawn) [Compound 6, 3-(6-((S)-2-(hydroxymethyl)pyrrolidin-1-yl)pyridazin-3-yl)piperidine-2,6-dione], the IC50 on E3 ubiquitin ligase CRBN worked out at 50 µM. `O=C1CCC(c2ccc(N3CCNCC3)nn2)C(=O)N1` (stereo not shown) [Compound 7, 3-(6-(piperazin-1-yl)pyridazin-3-yl)piperidine-2,6-dione hydrochloride salt]: at E3 ubiquitin ligase CRBN, the IC50 is 50 µM. The same measure, in the same setting: under `COc1ccc(C2CCC(=O)NC2=O)nn1` (stereo not shown) [Compound 8, 3-(6-methoxypyridazin-3-yl) piperidine-2,6-dione] stands 50 µM. Same read-out and setting: for `Cc1cc(N2CCNCC2)nnc1C1CCC(=O)NC1=O` (stereo not shown) [Compound 9, 3-(4-methyl-6-(piperazin-1-yl)pyridazin-3-yl)piperidine-2,6-dione hydrochloride salt] the value was 50 µM; for `O=C1CCC(c2nnc(N3CCNCC3)cc2F)C(=O)N1` (stereo not shown) [Compound 13, 3-(4-fluoro-6-(piperazin-1-yl)pyridazin-3-yl)piperidine-2,6-dione hydrochloride salt], 50 µM. Regarding `N#Cc1cc(N2CCNCC2)nnc1C1CCC(=O)NC1=O` (stereo not shown) [Compound 14, 3-(2,6-dioxopiperidin-3-yl) -6-(piperazin-1-yl)pyridazine-4-carbonitrile hydrochloride salt], on E3 ubiquitin ligase CRBN, the IC50 was found to be 50 µM. Still for that read-out and setting: for `O=C1CCC(c2nnc(N3CCNCC3)cc2C(F)(F)F)C(=O)N1` (stereo not shown) [Compound 15, 3-(6-(piperazin-1-yl)-4-(trifluoromethyl)pyridazin-3-yl)piperidine-2,6-dione hydrochloride salt] the value was 50 µM. Same read-out and setting: under `COc1cc(N2CCNCC2)nnc1C1CCC(=O)NC1=O` (stereo not shown) [Compound 16, 3-(4-methoxy-6-(piperazin-1-yl)pyridazin-3-yl)piper idine-2,6-dione hydrochloride salt] stands 50 µM; under `Nc1cc(N2CCNCC2)nnc1C1CCC(=O)NC1=O` (stereo not shown) [Compound 17, 3-(4-amino-6-(piperazin-1-yl)pyridazin-3-yl)piperidine-2,6-dione hydrochloride salt], 50 µM.

`CN(C)Cc1cc(N2CCNCC2)nnc1C1CCC(=O)NC1=O` (stereo not shown) [Compound 18, 3-(4-((dimethylamino)methyl)-6-(piperazin-1-yl)pyridazin-3-yl)piperidine-2,6-dionebis hydrochloride salt]: the IC50 on E3 ubiquitin ligase CRBN (read-out: IC50) was > 50 µM and 100 µM. For the compound `Cc1sc2c(c1C)C(c1ccc(Cl)cc1)=N[C@@H](CC(=O)NCCCCNC(=O)COc1ccc(C3CCC(=O)NC3=O)nn1)c1nnc(C)n1-2` (stereo partly shown) [PRTB-01], at BRD protein, the DC50 fell in the range of 1 to 10 µM and the Dmax is under 50%.

`Cc1sc2c(c1C)C(c1ccc(Cl)cc1)=N[C@@H](CC(=O)NCCCCCNC(=O)COc1ccc(C3CCC(=O)NC3=O)nn1)c1nnc(C)n1-2` (stereo partly shown) [PRTB-02]: on BRD protein, the DC50 is under 1 µM and the Dmax is over 85%. For `Cc1sc2c(c1C)C(c1ccc(Cl)cc1)=N[C@@H](CC(=O)NCCCCCCNC(=O)COc1ccc(C3CCC(=O)NC3=O)nn1)c1nnc(C)n1-2` (stereo partly shown) [PRTB-03], in that order: 1 to 10 µM and under 50%.

With `Cc1sc2c(c1C)C(c1ccc(Cl)cc1)=N[C@@H](CC(=O)NCCCC(=O)N1CCN(c3ccc(C4CCC(=O)NC4=O)nn3)CC1)c1nnc(C)n1-2` (stereo partly shown) [PRTB-04], on BRD protein, the DC50 fell in the range of 1 to 10 µM and the Dmax was under 50%. For `Cc1sc2c(c1C)C(c1ccc(Cl)cc1)=N[C@@H](CC(=O)NCCCCC(=O)N1CCN(c3ccc(C4CCC(=O)NC4=O)nn3)CC1)c1nnc(C)n1-2` (stereo partly shown) [PRTB-05], in that order: 1 to 10 µM and under 50%.

Take `Cc1sc2c(c1C)C(c1ccc(Cl)cc1)=N[C@@H](CC(=O)NCCOCC(=O)N1CCN(c3ccc(C4CCC(=O)NC4=O)nn3)CC1)c1nnc(C)n1-2` (stereo partly shown) [PRTB-06]: on BRD protein, the DC50 lay within 1 to 10 µM and the Dmax was in the range of 50 to 85%. For `Cc1sc2c(c1C)C(c1ccc(Cl)cc1)=N[C@@H](CC(=O)NCCCOCC(=O)N1CCN(c3ccc(C4CCC(=O)NC4=O)nn3)CC1)c1nnc(C)n1-2` (stereo partly shown) [PRTB-07], in that order: over 10 µM and under 50%.

On BRD protein, `Cc1sc2c(c1C)C(c1ccc(Cl)cc1)=N[C@@H](CC(=O)NCCOCC(=O)N1CCN(c3ccc(N4CCC(=O)NC4=O)nn3)CC1)c1nnc(C)n1-2` [PRTB-08] displayed a DC50 of 1 to 10 µM and a Dmax of 50 to 85%. In the same order, the values of `Cc1cc(N2CCN(C(=O)COCCNC(=O)C[C@@H]3N=C(c4ccc(Cl)cc4)c4c(sc(C)c4C)-n4c(C)nnc43)CC2)nnc1C1CCC(=O)NC1=O` (stereo partly shown) [PRTB-09] are 1 to 10 µM and 50 to 85%. At BRD protein, `Cc1sc2c(c1C)C(c1ccc(Cl)cc1)=N[C@@H](CC(=O)NCCOCC(=O)N1CCN(c3nnc(C4CCC(=O)NC4=O)c4c3CCCC4)CC1)c1nnc(C)n1-2` (stereo partly shown) [PRTB-10] returned a DC50 of over 10 µM and a Dmax of under 50%. For `Cc1sc2c(c1C)C(c1ccc(Cl)cc1)=N[C@@H](CC(=O)NCCOCC(=O)N1CCN(c3nnc(C4CCC(=O)NC4=O)c4ccccc34)CC1)c1nnc(C)n1-2` (stereo partly shown) [PRTB-11], in that order: over 10 µM and under 50%.

On BRD protein, `Cc1sc2c(c1C)C(c1ccc(Cl)cc1)=N[C@@H](CC(=O)NCCCCCOC1CN(c3ccc(C4CCC(=O)NC4=O)nn3)C1)c1nnc(C)n1-2` (stereo partly shown) [PRTB-12] registered a DC50 of under 1 µM and a Dmax of over 85%. In the same order, the values of `Cc1sc2c(c1C)C(c1ccc(Cl)cc1)=N[C@@H](CC(=O)NCCCCCNC(=O)C#Cc1ccc(C3CCC(=O)NC3=O)nn1)c1nnc(C)n1-2` (stereo partly shown) [PRTB-13] are under 1 µM and over 85%. For `Cc1sc2c(c1C)C(c1ccc(Cl)cc1)=N[C@@H](CC(=O)NCCCn1ccc(C#Cc3ccc(C4CCC(=O)NC4=O)nn3)n1)c1nnc(C)n1-2` (stereo partly shown) [PRTB-14], in that order: under 1 µM and 50 to 85%.

On BRD protein, `Cc1sc2c(c1C)C(c1ccc(Cl)cc1)=N[C@@H](CC(=O)NCCCn1cc(C#Cc3ccc(C4CCC(=O)NC4=O)nn3)cn1)c1nnc(C)n1-2` (stereo partly shown) [PRTB-15] had a DC50 of under 1 µM and a Dmax of over 85%. For `COc1nnc(C2CCC(=O)NC2=O)cc1N1CCN(C(=O)COCCNC(=O)C[C@@H]2N=C(c3ccc(Cl)cc3)c3c(sc(C)c3C)-n3c(C)nnc32)CC1` (stereo partly shown) [PRTB-16], in that order: over 10 µM and under 50%.
